In patent US8674113B2, “Compounds” (Boehringer Ingelheim International GmbH, priority 2010, dated 2014):

biological target: mPGES-1 in A549 cells (Homo sapiens (Human), UniProt O14684); assay: A549 cell-based assay (PGE2 formation, 50% human serum); conditions: IL-1β 5 ng/ml, 10 nM arachidonic acid, 20-24 h, read-out: mPGES-1 inhibitory effect IC50 in the cell assay
Protocol: Although the enzymatic assay is a high throughput assay the disadvantage is that it uses a recombinant protein which is not in its natural environment. Accordingly a cellular assay was established in which a cell line of human origin (A549) expressing the mPGES-1 protein was used. In addition in order to mimic the situation in humans in which compounds can be bound to plasma proteins 50% human serum is added in the assay.
A549 cells (ATCC: CCL-185) are grown to about 90% confluence in F-12K Nutrient Mixture (Kaighn's Mod. Gibco) containing 10% FBS in a humified incubator at 37° C. and 5% CO2. Cells were detached using Trypsin-EDTA. A549 cells were seeded in a 384-well collagene plate at a density of 7000 cells/well (50 μl) in F-12 medium containing 1% Penicillin-Streptomycin and 50% human serum. The cells were allowed to attach for 3-4 h. After that the cells were incubated for 20-24 h in F-12k medium supplemented with 50% human serum, 1% Penicillin-Streptomycin and containing IL-1β at a final concentration of 5 ng/ml as well as 10 nM arachidonic acid in the presence of a vehicle or a test compound. The total volume is 100 μl.
Concentrations of PGE2 in the cell free medium (10 μl) were measured using a commercially available HTRF kit from Cisbio (as described above). The PGE2 formation in the absence of test compound was taken as 100%.
IC50 values were derived from at 6-8 point titrations using conventional software.

mPGES-1 in A549 cells, sequence (O14684 whole entry): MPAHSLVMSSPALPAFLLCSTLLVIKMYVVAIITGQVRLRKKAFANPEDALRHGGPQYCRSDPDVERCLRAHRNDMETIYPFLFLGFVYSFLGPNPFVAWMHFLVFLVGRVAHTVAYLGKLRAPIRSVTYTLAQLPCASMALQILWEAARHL

| SMILES | IC50 [nM] |
| --- | --- |
| Cn1c(Nc2c(Cl)ccc(CNC(=O)C(C)(C)C)c2F)nc2cc(C(=O)N[C@H]3CC[C@H](C(F)(F)F)CC3)c(N3CCC(C(F)(F)F)C3)cc21 (stereo partly shown) [Example 6] | 4 |
| Cn1c(Nc2c(Cl)ccc(CNC(=O)C(C)(C)C)c2Cl)nc2cc(C(=O)NC3CC(F)(F)C3)c(NCC(F)F)cc21 [Example 16] | 197 |
| Cn1c(Nc2c(Cl)ccc(CNC(=O)C(C)(C)C)c2Cl)nc2cc(C(=O)N[C@H]3CC[C@H](C(F)(F)F)CC3)c(N3CCC(F)(F)C3)cc21 [Example 20, N-(trans-4-Trifluoromethyl-cyclohexyl)-2-{2,6-dichloro-3-[(2,2-dimethyl-propionylamino)-methyl]-phenylamino}-6-[3,3-difluoro-pyrrolidinyl]-1-methyl-1H-benzimidazole-5-carboxylic acid amide] | 1 |
| Cn1c(Nc2c(Cl)ccc(CNC(=O)C(C)(C)C)c2Cl)nc2cc(C(=O)N[C@H]3CC[C@H](C(F)(F)F)CC3)c(N3CCC(C(F)(F)F)CC3)cc21 [Example 52, N-(trans-4-Trifluoromethyl-cyclohexyl)-2-{2,6-dichloro-3-[(2,2-dimethyl-propionylamino)-methyl]-phenylamino}-6-[4-trifluoromethyl-piperidinyl]-1-methyl-1H-benzimidazole-5-carboxylic acid amide] | < 1 |
| CC(C)(C)C(=O)NCc1ccc(Cl)c(Nc2nc3cc(C(=O)Nc4ccc(OC(F)(F)F)cc4)c(N4CC[C@@H](F)C4)cc3n2CC(F)F)c1Cl [Example 77, (R)—N-(4-Trifluoromethoxy-phenyl)-2-{2,6-dichloro-3-[(2,2-dimethyl-propionylamino)-methyl]-phenylamino}-6-[3-fluoro-pyrrolidinyl]-1-(2,2-difluorethyl)-1H-benzimidazole-5-carboxylic acid amide] | 2 |
| CN(Cc1nnc[nH]1)c1cc2c(cc1C(=O)N[C@H]1CC[C@H](C(F)(F)F)CC1)nc(Nc1c(Cl)ccc(CNC(=O)C(C)(C)C)c1Cl)n2C [Example 114] | 3.5 |
| Cc1n[nH]c(CN(C)c2cc3c(cc2C(=O)N[C@H]2CC[C@H](C(F)(F)F)CC2)nc(Nc2c(Cl)ccc(CNC(=O)C(C)(C)F)c2Cl)n3C)n1 [Example 115] | 2 |
| CN(Cc1ncnn1C)c1cc2c(cc1C(=O)N[C@H]1CC[C@H](C(F)(F)F)CC1)nc(Nc1c(Cl)ccc(CNC(=O)C(C)(C)C)c1Cl)n2C [Example 116] | 80 |
| Cn1c(Nc2c(Cl)ccc(CNC(=O)C(C)(C)F)c2Cl)nc2cc(C(=O)N[C@H]3CC[C@H](C(F)(F)F)CC3)c(N3CCC4(CC3)CC4)cc21 [Example 123] | 1 |
| Cn1c(Nc2c(Cl)ccc(CNC(=O)C(C)(C)F)c2Cl)nc2cc(C(=O)N[C@H]3CC[C@H](C(F)(F)F)CC3)c(N3CCC(C(C)(C)O)CC3)cc21 [Example 124] | 2 |
| Cn1c(Nc2c(Cl)ccc(CNC(=O)C(C)(C)C)c2Cl)nc2cc(C(=O)N[C@H]3CC[C@H](C(F)(F)F)CC3)c(N3CCC(F)CC3)cc21 [Example 125] | 1.4 |
| Cn1c(Nc2c(Cl)ccc(CNC(=O)C(C)(C)F)c2Cl)nc2cc(C(=O)Nc3ccc(OC(F)(F)F)cc3)c(N3CCOCC3)cc21 [Example 142] | 2 |
| Cc1n[nH]c(CN(C)c2cc3c(cc2C(=O)Nc2ccc(OC(F)(F)F)cc2)nc(Nc2c(Cl)ccc(CNC(=O)C(C)(C)F)c2Cl)n3C)n1 [Example 143] | 2.6 |
| Cn1c(Nc2c(Cl)ccc(CNC(=O)C(C)(C)F)c2Cl)nc2cc(C(=O)N[C@H]3CC[C@H](C(F)(F)F)CC3)c(N3CCOCC3)cc21 [Example 146] | < 1 |
| Cn1c(Nc2c(Cl)ccc(CNC(=O)C(C)(C)F)c2Cl)nc2cc(C(=O)NCCC(F)(F)F)c(N3CCC4(CC3)CC4)cc21 [Example 147] | 2 |
| Cn1c(Nc2c(Cl)ccc(CNC(=O)C(C)(C)C)c2Cl)nc2cc(C(=O)NCC(F)(F)C(F)(F)F)c(N3CCC(F)CC3)cc21 [Example 151] | 1.4 |
| Cc1n[nH]c(CN(C)c2cc3c(cc2C(=O)NCC(F)(F)C(F)(F)F)nc(Nc2c(Cl)ccc(CNC(=O)C(C)(C)F)c2Cl)n3C)n1 [Example 152] | 17 |
| Cn1c(Nc2c(Cl)ccc(CNC(=O)C(C)(C)F)c2Cl)nc2cc(C(=O)NCC(F)(F)C(F)(F)F)c(N3CCOCC3)cc21 [Example 153] | 4.6 |
| Cn1c(Nc2c(Cl)ccc(CNC(=O)C(C)(C)C)c2Cl)nc2cc(C(=O)N[C@H]3CC[C@@H](C(F)(F)F)CC3)c(N3CC4CC4C3)cc21 (stereo partly shown) [Example 155] | 6 |
| Cn1c(Nc2c(Cl)ccc(CNC(=O)C(C)(C)C)c2Cl)nc2cc(C(=O)Nc3cc(C(C)(C)C)no3)c(N3CCC(C(F)(F)F)CC3)cc21 [Example 157] | 1 |
| CC(C)(O)Cn1c(Nc2c(Cl)ccc(CNC(=O)C(C)(C)C)c2Cl)nc2cc(C(=O)Nc3ccc(OC(F)(F)F)cc3)c(N3CCC(C(F)(F)F)CC3)cc21 [Example 167] | 2.4 |

| SMILES | IC50 [nM] |
| --- | --- |
| CC(C)(C)C(=O)NCc1ccc(Cl)c(Nc2nc3cc(C(=O)Nc4ccc(OC(F)(F)F)cc4)c(N4CCC(C(F)(F)F)CC4)cc3n2CCC(N)=O)c1Cl [Example 169] | 5 |
| CC(C)(C)C(=O)NCc1ccc(Cl)c(Nc2nc3cc(C(=O)N[C@H]4CC[C@H](C(F)(F)F)CC4)c(N4CCOCC4)cc3n2CCC(N)=O)c1Cl [Example 170] | 110 |
| CC(C)(C)C(=O)NCc1ccc(Cl)c(Nc2nc3cc(C(=O)N[C@H]4CC[C@H](C(F)(F)F)CC4)c(N4CCC(C(F)(F)F)CC4)cc3n2CCC(N)=O)c1Cl [Example 171] | 6 |
| Cn1c(Nc2c(Cl)ccc(CNC(=O)c3cccc[n+]3[O-])c2Cl)nc2cc(C(=O)NCCC(F)(F)F)c(N3CCC(C(F)(F)F)CC3)cc21 [Example 174] | > 100 |
| Cn1nc(C(=O)NCc2ccc(Cl)c(Nc3nc4cc(C(=O)NCCC(F)(F)F)c(N5CCC(C(F)(F)F)CC5)cc4n3C)c2Cl)cc1N [Example 180] | > 100 |
| Cn1c(Nc2c(Cl)ccc(CNC(=O)c3cc(CO)ccn3)c2Cl)nc2cc(C(=O)NCCC(F)(F)F)c(N3CCC(C(F)(F)F)CC3)cc21 [Example 181] | > 100 |
| Cn1c(Nc2c(Cl)ccc(CNC(=O)c3n[nH]c4c3CCC4)c2Cl)nc2cc(C(=O)NCCC(F)(F)F)c(N3CCC(C(F)(F)F)CC3)cc21 [Example 183] | > 100 |
| Cn1c(Nc2c(Cl)ccc(CNC(=O)c3cc[nH]n3)c2Cl)nc2cc(C(=O)NCCC(F)(F)F)c(N3CCC(C(F)(F)F)CC3)cc21 [Example 184] | > 100 |
| Cn1c(Nc2c(Cl)ccc(CNC(=O)C3(C)CC3)c2Cl)nc2cc(C(=O)N[C@H]3CC[C@H](C(F)(F)F)CC3)c(N3CC4CC4C3)cc21 (stereo partly shown) [Example 187] | 1 |
| Cn1c(Nc2c(Cl)ccc(CNC(=O)C3(C(F)(F)F)CC3)c2Cl)nc2cc(C(=O)N[C@H]3CC[C@H](C(F)(F)F)CC3)c(N3CC4CC4C3)cc21 (stereo partly shown) [Example 188] | 1 |
| Cn1c(Nc2c(Cl)ccc(CNC(=O)C3(O)CC3)c2Cl)nc2cc(C(=O)N[C@H]3CC[C@H](C(F)(F)F)CC3)c(N3CC4CC4C3)cc21 (stereo partly shown) [Example 189] | 3 |
| Cn1c(Nc2c(Cl)ccc(CNC(=O)C(C)(C)O)c2Cl)nc2cc(C(=O)N[C@H]3CC[C@H](C(F)(F)F)CC3)c(N3CC4CC4C3)cc21 (stereo partly shown) [Example 190] | 9 |
| Cn1c(Nc2c(Cl)ccc(CNC(=O)C(C)(C)F)c2Cl)nc2cc(C(=O)N[C@H]3CC[C@H](C(F)(F)F)CC3)c(N3CC4CC4C3)cc21 (stereo partly shown) [Example 191] | 2 |
| Cn1c(Nc2c(Cl)ccc(CNC(=O)[C@@](C)(O)C(F)(F)F)c2Cl)nc2cc(C(=O)N[C@H]3CC[C@H](C(F)(F)F)CC3)c(N3CC4CC4C3)cc21 (stereo partly shown) [Example 192] | 1 |
| Cn1c(Nc2c(Cl)ccc(CNC(=O)[C@@](C)(O)C(F)(F)F)c2Cl)nc2cc(C(=O)N[C@H]3CC[C@H](C(F)(F)F)CC3)c(N3CC4CC4C3)cc21 (stereo partly shown) [Example 193] | 2.5 |
| Cn1c(Nc2c(Cl)ccc(CNC(=O)C(C)(C)CO)c2Cl)nc2cc(C(=O)N[C@H]3CC[C@H](C(F)(F)F)CC3)c(N3CC4CC4C3)cc21 (stereo partly shown) [Example 194] | 2.1 |
| CN(C)c1ccnc(C(=O)NCc2ccc(Cl)c(Nc3nc4cc(C(=O)N[C@H]5CC[C@H](C(F)(F)F)CC5)c(N5CC6CC6C5)cc4n3C)c2Cl)c1 (stereo partly shown) [Example 195] | 51 |
| Cc1ccnc(C(=O)NCc2ccc(Cl)c(Nc3nc4cc(C(=O)N[C@H]5CC[C@H](C(F)(F)F)CC5)c(N5CC6CC6C5)cc4n3C)c2Cl)c1 (stereo partly shown) [Example 196] | 9 |
| CNc1cncc(C(=O)NCc2ccc(Cl)c(Nc3nc4cc(C(=O)N[C@H]5CC[C@H](C(F)(F)F)CC5)c(N5CC6CC6C5)cc4n3C)c2Cl)c1 (stereo partly shown) [Example 198] | > 100 |
| Cc1ccc(C(=O)NCc2ccc(Cl)c(Nc3nc4cc(C(=O)N[C@H]5CC[C@H](C(F)(F)F)CC5)c(N5CC6CC6C5)cc4n3C)c2Cl)nc1C (stereo partly shown) [Example 199] | 8 |

same assay, conditions: Table C comparison of selected benzimidazoles, read-out: Cell IC50

| SMILES | IC50 [nM] |
| --- | --- |
| Cn1c(Nc2c(Cl)ccc(CNC(=O)C(C)(C)C)c2Cl)nc2cc(C(=O)N[C@H]3CC[C@H](C(F)(F)F)CC3)c(N3CCC(F)(F)C3)cc21 [Example 20, N-(trans-4-Trifluoromethyl-cyclohexyl)-2-{2,6-dichloro-3-[(2,2-dimethyl-propionylamino)-methyl]-phenylamino}-6-[3,3-difluoro-pyrrolidinyl]-1-methyl-1H-benzimidazole-5-carboxylic acid amide] | 1 |

same assay, conditions: mPGES-1 inhibitory effect IC50 in the cell assay, IL-1β 5 ng/ml, 10 nM arachidonic acid, 20-24 h

| SMILES | IC50 [nM] |
| --- | --- |
| CC(C)(C)C(=O)NCc1ccc(Cl)c(Nc2nc3cc(C(=O)N[C@H]4CC[C@H](C(F)(F)F)CC4)c(N4CCOCC4)cc3n2CC(F)F)c1Cl [Example 71, N-(trans-4-Trifluoromethyl-cyclohexyl)-2-{2,6-dichloro-3-[(2,2-dimethyl-propionylamino)-methyl]-phenylamino}-6-[morpholin-1-yl]-(2,2-difluoroethyl)-benzimidazole-5-carboxylic acid amide] | < 1 |
